US7851590B2, “Y2 selective receptor agonists for therapeutic interventions” (7TM Pharma A/S, priority 2005, dated 2010)

Columns and labels:
[1] = biological target: T1, rhesus monkey Y2 receptor (Macaca mulatta, UniProt Q9GK74); assay: Rhesus monkey Y2 receptor potency assay (phosphatidylinositol turnover, Gqi5); assay type: cell-based; design: The coding region of the rhesus monkey NPY-Receptors (Y1, Y2, Y4) were sub-cloned into the pcDNA3.1/Zeo vector; expressed in transfected cells; host or cells: COS-7 cells, transiently transfected; settings: COS-7 cells transiently transfected with rhesus monkey Y2 receptor and Gqi5; μM; read-out: IP3 EC50 values at Y2
T1 sequence (Q9GK74 1-381): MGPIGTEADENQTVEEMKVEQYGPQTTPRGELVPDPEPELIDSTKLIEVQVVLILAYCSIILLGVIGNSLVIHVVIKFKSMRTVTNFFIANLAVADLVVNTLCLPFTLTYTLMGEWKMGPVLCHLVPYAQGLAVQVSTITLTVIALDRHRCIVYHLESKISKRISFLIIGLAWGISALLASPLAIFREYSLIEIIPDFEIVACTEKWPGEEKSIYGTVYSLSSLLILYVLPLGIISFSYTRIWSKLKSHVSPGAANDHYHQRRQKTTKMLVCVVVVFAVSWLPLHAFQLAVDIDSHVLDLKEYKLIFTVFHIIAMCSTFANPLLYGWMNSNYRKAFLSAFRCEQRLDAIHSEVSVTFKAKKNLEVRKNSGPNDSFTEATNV
Protocol: Determinations are made in duplicates. EC50 values were calculated using a standard pharmacological data handling software, Prism 3.0 (graphPad Sofware, San Diego, USA).

[2] = biological target: T1, rhesus monkey Y2 receptor; assay: Rhesus monkey Y2 receptor affinity assay (competition binding with human 125I-PYY); design: The coding region of the rhesus monkey NPY-Receptors (Y1, Y2, Y4) were sub-cloned into the pcDNA3.1/Zeo vector; expressed in transfected cells; host or cells: CHO cells, stably transfected; settings: CHO cells stably transfected with the rhesus monkey Y2 receptor; 12 pM human 125I-PYY, 3 hours at 4 C; read-out: Competition binding w 126I-PYY at Y2 (Ki)
Protocol: The stable transfected CHO cells are transferred to 48-well culture plates one day prior assay at a density of 2,500 cells per well aiming at 5-8% binding of the radioactive ligand. […] Cells are washed twice in 0.5 ml of ice-cold buffer and 0.5-1 ml of lysis buffer (8 M Urea, 2% NP40 in 3 M acetic acid) is added and the bound radioactivity is counted in a gamma counter. Determinations are made in triplicates.

- EC50 [1]: > 1 µM
- Ki [2]: > 1000 nM
Compound: CC[C@H](C)[C@H](NC(=O)[C@H](Cc1ccc(O)cc1)NC(=O)[C@H](CCCNC(=N)N)NC(=O)[C@H](CCCNC(=N)N)NC(=O)[C@H](CC(C)C)NC(=O)[C@H](CC(=O)O)NC(=O)[C@H](C)NC(=O)[C@H](C)NC(=O)[C@H](Cc1ccc(O)cc1)NC(=O)[C@H](CCC(N)=O)NC(=O)[C@H](C)NC(=O)[C@H](CCSC)NC(=O)[C@H](CCC(N)=O)NC(=O)[C@H](CCC(=O)O)NC(=O)[C@@H]1CCCN1C(=O)[C@@H](NC(=O)[C@H](C)NC(=O)[C@H](CC(N)=O)NC(=O)[C@H](CC(=O)O)NC(=O)CNC(=O)[C@@H]1CCCN1C(=O)[C@H](Cc1ccc(O)cc1)NC(=O)[C@@H](NC(=O)[C@@H]1CCCN1C(=O)[C@H](CCC(=O)O)NC(=O)[C@H](CC(C)C)NC(=O)[C@@H]1CCCN1C(=O)[C@H](C)N)C(C)C)[C@@H](C)O)C(=O)N[C@@H](CC(N)=O)C(=O)N[C@@H](CCSC)C(=O)N[C@@H](CC(C)C)C(=O)N[C@H](C(=O)N[C@@H](CCCNC(=N)N)C(=O)N1CCC[C@H]1C(=O)N[C@@H](CCCNC(=N)N)C(=O)N[C@@H](Cc1ccc(O)cc1)C(N)=O)[C@@H](C)O [PP, Pancreatic Polypeptide]
